# Patent US20240124387A1, “ACID RECOVERY” (GREENCOVERY B.V., priority 2021, published 2024)
# Marks after values point to notes of the source that are not given here.
# What was measured:
# [1] = Precipitation stage: eluate (desorption) samples sparged with CO2, acid quantified again; assay type: physicochemical; details: for reduction of organic acid concentration in solution after sparging with CO2: desorption samples of Example 1 (90 wt. % ethanol, 1M KOH); for reduction of amino acid concentration in solution (in the eluate) after CO2 sparging: eluate samples with highest amino acid content, 0.425 M KOH in 93.5 wt. % ethanol
# Procedure: In the precipitation stage, the desorption samples were sparged with CO2, and the organic acids were quantified again the precipitation stage.
# The eluate was separated into four samples of 7.5 mL each.
# [2] = Precipitation with CO2 in solutions containing different amino acids, ethanol and water (table 3); assay type: physicochemical; details: for Concentration of amino acid in the liquid, Before precipitation / Concentration of amino acid in the liquid, After precipitation / Precipitate: 0.5M NaOH; for Concentration of amino acid in the liquid, After precipitation / Precipitate: after CO2; for Precipitate: includes sodium (bi)carbonate; for share of the amino acid precipitated when providing CO2: 80 wt. % ethanol
# Description: A variety of eluates, comprising different amino acids, and solvent concentrations were subjected to the precipitation stage as summarized in table 3: […]
# [3] = 20 wt. % water, 80% wt. % ethanol
# [4] = 37.6 wt. % water, 62.4 wt. % ethanol
# [5] = 50 wt. % water, 50 wt. % ethanol
# [6] = second 7.5 mL eluate sample, 90 wt. % methanol, 0.85M KOH
SMILES,reduction of organic acid concentration in solution after sparging with CO2 [1],"Concentration of amino acid in the liquid, Before precipitation [2, 3]","Concentration of amino acid in the liquid, After precipitation [2, 3] [µg/mL]","Precipitate [2, 3] [g/L]","Concentration of amino acid in the liquid, Before precipitation [2, 4] [g/L]","Concentration of amino acid in the liquid, After precipitation [2, 4] [µg/mL]","Precipitate [2, 4] [g/L]",behaviour of the amino acid when providing CO2 ([2]; 50 wt. % ethanol),"Concentration of amino acid in the liquid, Before precipitation [2, 5] [g/L]","Concentration of amino acid in the liquid, After precipitation [2, 5] [µg/mL]","Precipitate [2, 5] [g/L]",behaviour of the amino acid when providing CO2 ([2]; 62.4% ethanol),share of the amino acid precipitated when providing CO2 [2],reduction of amino acid concentration in solution (in the eluate) after CO2 sparging [1],"concentration in eluate sample after CO2 sparging [1, 6] [µg/mL]","concentration in eluate sample before CO2 sparging [1, 6] [µg/mL]",reduction of glutamic acid concentration in solution after CO2 sparging ([1]; 0.85 M KOH in 90 wt. % ethanol (AA4)),reduction of glutamic acid concentration in solution after CO2 sparging ([1]; 1M NaOH in 62.4 wt. % ethanol (AA5))
"CC(O)C(=O)O (stereo not drawn) [lactate, lactic acid]",(essentially) no reduction,,,,,,,,,,,,,,,,,
"CC(C)C[C@H](N)C(=O)O [Leucine, L-leucine]",,10.3 g/L,9100,20.7,9.6,9700,18.1,remained in solution,10.2,10200,12.6,remained in solution,less than 10%,> 99%,,,,
NCCCC[C@H](N)C(=O)O [Lysine],,10.3 g/L,3400,32.5,10.4,10300,22.0,,10.3,10600,25.9,,,,,,,
"C[C@H](N)C(=O)O [alanine, L-alanine]",,,,,,,,,,,,,,~31%,,,,
CC(=O)O [acetate],,,,,,,,,,,,,,,24300,24600,,
CSCC[C@H](N)C(=O)O [Methionine],,10.2 g/L,4100,27.4,10.2,9600,21.2,,10.3,9600,15.2,,,,,,,
N[C@@H](CCC(=O)[O-])C(=O)[O-].[Na+].[Na+] [Sodium glutamate],,10.1* g/L,800,35.5,10.1,4300,34.1,remained in solution,10.1,10800,17.5,partially precipitated,over 90%,,,,,
"CCCCCC(=O)O [caproate, caproic acid]",(essentially) no reduction,,,,,,,,,,,,,,,,,
N[C@@H](CCC(=O)O)C(=O)O [Glutamic acid],,10.1* g/L,700,33.7,10.1,4800,30.5,,,,,,,approximately 68%,,,approximately 74%,approximately 90%
N[C@@H](Cc1ccccc1)C(=O)O [Phenylalanine],,10.3 g/L,3600,27.4,10.2,9100,20.6,,10.3,10300,16.9,,,,,,,
